Assay results as given in patent US20260070924A1, “INDAZOLE MACROCYCLES AND THEIR USE” (BLOSSOMHILL THERAPEUTICS, INC., priority 2022, published 2026).

How the values were obtained:
Format in all cases: cell-based
MOLM-13 cell line = assay: Alternative splicing events by RNAseq in MOLM-13; conditions: 8 hour-incubation
Experimental: Alternative splicing events were measured by RNAseq in MOLM-13 cell line. Cells were plated in 24 well plates at 1 million cells per well and then treated with compounds at different concentrations, with DMSO as control. After 8 hour-incubation, cells were harvested and washed once with ice-cold PBS, and lysed in RNA lysis buffer (Invitrogen). Total RNA was extracted using the RNA Purification Kit (Invitrogen). RNAseq was performed by Biomiga (San Diego).

H23 = assay: Cell proliferation panel (CellTiter-Glo 2.0, 5 days); conditions: Lung adenocarcinoma NSCLC
Experimental: (§1) Cell proliferation assay was carried out in a panel of 108 cell lines. 1000 (attached cells) or 3000 (suspension cells) cells/100 μl per well were seeded in 96 well black plate with a clear bottom (Corning #3904). Compounds were added using Tecan D300e Digital Dispenser in 1:3 titration for 9 doses. Plates were incubated for 5 days at 37° C. and 5% CO2. Cell proliferation was measured using CellTiter-Glo 2.0 luciferase-based ATP detection assay (Promega, Madison, WI) at 50 μl per well following the manufacturer's protocol. Plates were then read on a TECAN Sparks multimode microplate reader. Data was analyzed using GraphPad Prism 9 (GraphPad Software, San Diego, CA) to obtain IC50 values. IC50 values were determined using Prism software (GraphPad Software, San Diego, CA).

KP-N-RT-BM-1 = assay: as above; conditions: Neuroblastoma
Experimental: as §1

PANC1 = assay: as above; conditions: Pancreatic ductal epithelioid carcinoma
Experimental: as §1

H2122 = assay: as above; conditions: Lung adenocarcinoma NSCLC
Experimental: as §1

BJ = assay: as above; conditions: Skin fibroblast
Experimental: as §1

SK-N-SH = assay: as above; conditions: Neuroblastoma
Experimental: as §1

SK-N-AS = assay: as above; conditions: Neuroblastoma
Experimental: as §1

CHP-212 = assay: as above; conditions: Neuroblastoma
Experimental: as §1

H446 = assay: as above; conditions: Small cell lung carcinoma
Experimental: as §1

KCL22S = assay: as above; conditions: Chronic myeloid leukemia at blast crisis
Experimental: as §1

PA-1 = assay: as above; conditions: Ovary Teratocarcinoma
Experimental: as §1

HCC78 = assay: as above; conditions: Non-small cell lung carcinoma
Experimental: as §1

N87 = assay: as above; conditions: Gastric carcinoma
Experimental: as §1

22RV1 = assay: as above; conditions: Prostate carcinoma
Experimental: as §1

KASUMI-4 = assay: as above; conditions: Chronic Myeloblastic Leukemia
Experimental: as §1

MCF7 = assay: as above; conditions: Breast adenocarcinoma
Experimental: as §1

MOLM13 = assay: as above; conditions: Acute myeloid leukemia
Experimental: as §1

AGS = assay: as above; conditions: Gastric adenocarcinoma
Experimental: as §1

H1975 = assay: as above; conditions: Lung adenocarcinoma NSCLC
Experimental: as §1

SW1990 = assay: as above; conditions: Pancreatic adenocarcinoma
Experimental: as §1

U118-MG = assay: as above; conditions: Brain glioblastoma
Experimental: as §1

Kelly = assay: as above; conditions: Neuroblastoma
Experimental: as §1

PANC0504 = assay: as above; conditions: Pancreatic carcinoma
Experimental: as §1

SW480 = assay: as above; conditions: Colorectal adenocarcinoma
Experimental: as §1

HCC1419 = assay: as above
Experimental: as §1

DLD1 = assay: as above; conditions: Colorectal adenocarcinoma
Experimental: as §1

TF-1 = assay: as above; conditions: Erythroleukemia
Experimental: as §1

H2087 = assay: as above; conditions: Lung adenocarcinoma NSCLC
Experimental: as §1

KCL22R = assay: as above; conditions: Chronic Myelogenous Leukemia
Experimental: as §1

AU565 = assay: as above; conditions: Breast adenocarcinoma
Experimental: as §1

HPAC = assay: as above; conditions: Pancreatic carcinoma
Experimental: as §1

MV-4-11 = assay: as above; conditions: Biphenotypic B-Myelomonocytic Leukemia
Experimental: as §1

H2228 = assay: as above; conditions: Lung adenocarcinoma, NSCLC
Experimental: as §1

THP-1 = assay: as above; conditions: Acute monocytic leukemia
Experimental: as §1

MOLM14 = assay: as above; conditions: Acute myeloid leukemia
Experimental: as §1

H441 = assay: as above; conditions: Lung adenocarcinoma NSCLC
Experimental: as §1

PC-9 = assay: as above; conditions: Lung adenocarcinoma NSCLC
Experimental: as §1

H1930 = assay: as above; conditions: Lung carcinoma small cell lung cancer
Experimental: as §1

`CCc1nn(C)c2c1/C=C/c1n[nH]c3ccc(cc13)-c1cnn(C)c1OCCN(C)C2=O` [Ex. 6, (17E)-16-ethyl-8,12,14-trimethyl-2,11,12,14-tetrahydro-8H-3,5-ethenotripyrazolo[3,4-f:3′,4′-j:4″,3″-n][1,4]oxazacyclopentadecin-13(10H)-one] was tested, and the “AS Events A3′SS (alternative 3′ splice site)” value (“AS Events A3′SS” for short) (MOLM-13 cell line; MOLM-13, 30 nM) was 371, the “AS Events A5′SS (alternative 5′ splice site)” value (from here on “AS Events A5′SS”) (MOLM-13 cell line; MOLM-13, 30 nM) was 289 and the “AS Events MXE (mutually exclusive exons)” value (MOLM-13 cell line; MOLM-13, 30 nM) was 187. For the same compound, the “AS Events RI (retained intron)” value (MOLM-13 cell line; MOLM-13, 30 nM) was 536, the “AS Events SE (skipped exon)” value (MOLM-13 cell line; MOLM-13, 30 nM) was 2054 and the “AS Events A3′SS” value (MOLM-13 cell line; MOLM-13, 100 nM) was 559. For the same compound, the “AS Events A5′SS” value (MOLM-13 cell line; MOLM-13, 100 nM) was 443, the “AS Events MXE (mutually exclusive exons)” value (MOLM-13 cell line; MOLM-13, 100 nM) was 325 and the “AS Events RI (retained intron)” value (MOLM-13 cell line; MOLM-13, 100 nM) was 841. The “AS Events SE (skipped exon)” value (MOLM-13 cell line; MOLM-13, 100 nM) was 4568, the “AS Events A3′SS” value (MOLM-13 cell line; MOLM-13, 300 nM) was 722 and the “AS Events A5′SS” value (MOLM-13 cell line; MOLM-13, 300 nM) was 590. For the same compound, the “AS Events MXE (mutually exclusive exons)” value (MOLM-13 cell line; MOLM-13, 300 nM) was 355, the “AS Events RI (retained intron)” value (MOLM-13 cell line; MOLM-13, 300 nM) was 1184 and the “AS Events SE (skipped exon)” value (MOLM-13 cell line; MOLM-13, 300 nM) was 5093. The IC50 (H23) was 88.8 nM, the IC50 (KP-N-RT-BM-1) was 15.1 nM and the IC50 (PANC1) was 213 nM. It also gave an IC50 (H2122) of 73.7 nM, an IC50 (BJ) of 516 nM and an IC50 (SK-N-SH) of 21.7 nM. For the same compound, the IC50 (SK-N-AS) was 77.2 nM, the IC50 (CHP-212) was 27.4 nM and the IC50 (H446) was 112 nM. For the same compound, the IC50 (KCL22S) was 61.2 nM, the IC50 (PA-1) was 48 nM and the IC50 (HCC78) was 42.7 nM. For the same compound, the IC50 (N87) was 20.8 nM, the IC50 (22RV1) was 73.2 nM and the IC50 (KASUMI-4) was 11.2 nM. For the same compound, the IC50 (MCF7) was 75.9 nM, the IC50 (MOLM13) was 2.39 nM and the IC50 (AGS) was 87.9 nM. It also gave an IC50 (H1975) of 87.2 nM, an IC50 (SW1990) of 104 nM and an IC50 (U118-MG) of 310 nM. It also gave an IC50 (Kelly) of 51.5 nM, an IC50 (PANC0504) of 82.2 nM and an IC50 (SW480) of 90.5 nM. The IC50 (HCC1419) was 83.8 nM, the IC50 (DLD1) was 48.7 nM and the IC50 (TF-1) was 57.6 nM. For the same compound, the IC50 (H2087) was 141 nM, the IC50 (KCL22R) was 64.8 nM and the IC50 (AU565) was 25.5 nM. For the same compound, the IC50 (HPAC) was 79.1 nM, the IC50 (MV-4-11) was 0.68 nM and the IC50 (H2228) was 118 nM. The IC50 (THP-1) was 107 nM, the IC50 (MOLM14) was 2.26 nM and the IC50 (H441) was 91.1 nM. For the same compound, the IC50 (PC-9) was 164 nM and the IC50 (H1930) was 181 nM.
